# Data published in ChEMBL document CHEMBL3885881, “DrugMatrix”.
# Species on record: Rattus norvegicus
# Assay: DrugMatrix - Regimen: Daily Repeat
# Assay type: toxicity, organism-based, Sprague-Dawley
# Design: regimen Daily Repeat, gender Male, age 6-8 weeks
# Settings: in vivo, po, route oral GAVAGE, vehicle 100 % WATER; for ABSOLUTE BASOPHIL / ABSOLUTE EOSINOPHIL / ABSOLUTE LYMPHOCYTE / ABSOLUTE MONOCYTE / ABSOLUTE SEGMENTED NEUTROPHIL / BASOPHIL / EOSINOPHIL / ERYTHROCYTE COUNT / HEMATOCRIT / HEMOGLOBIN / LEUKOCYTE COUNT / LYMPHOCYTE / MEAN CORPUSCULAR HEMOGLOBIN / MEAN CORPUSCULAR HEMOGLOBIN CONCENTRATION / MEAN CORPUSCULAR VOLUME / MONOCYTE / NEUTROPHIL / NUCLEATED RED BLOOD CELLS / PLATELET COUNT: tissue Blood; for ALANINE AMINOTRANSFERASE / ALKALINE PHOSPHATASE / ASPARTATE AMINOTRANSFERASE / BLOOD UREA NITROGEN / CARBON DIOXIDE / CHLORIDE / CHOLESTEROL / CREATINE PHOSPHOKINASE / CREATININE / GLUCOSE / LACTATE DEHYDROGENASE / LIPASE / PHOSPHORUS / POTASSIUM / SODIUM / TOTAL BILIRUBIN / TOTAL PROTEIN / URIC ACID: tissue Plasma
# [1] = 22 mg/kg, 120 h, dose level Low, time 5 day
# [2] = 320 mg/kg, 72 h, dose level High, time 3 day
# [3] = 320 mg/kg, 120 h, dose level High, time 5 day
smiles,measurement,setting,value
COc1ccc(C(CN(C)C)C2(O)CCCCC2)cc1 (stereo unspecified) [VENLAFAXINE],ABSOLUTE BASOPHIL,[1],0 CELLS/uL
same,ABSOLUTE EOSINOPHIL,[1],0 CELLS/uL
same,ABSOLUTE LYMPHOCYTE,[1],7105.33 CELLS/uL
same,ABSOLUTE MONOCYTE,[1],102.33 CELLS/uL
same,ABSOLUTE SEGMENTED NEUTROPHIL,[1],692.33 CELLS/uL
same,BASOPHIL,[1],0%
same,EOSINOPHIL,[1],0%
same,ERYTHROCYTE COUNT,[1],5.16 x10E6/uL
same,HEMATOCRIT,[1],32.4%
same,HEMOGLOBIN,[1],12.8 G/DL
same,LEUKOCYTE COUNT,[1],7.9 x10E3/uL
same,LYMPHOCYTE,[1],90%
same,MEAN CORPUSCULAR HEMOGLOBIN,[1],24.83 pg
same,MEAN CORPUSCULAR HEMOGLOBIN CONCENTRATION,[1],39.5 G/DL
same,MEAN CORPUSCULAR VOLUME,[1],62.73 fL
same,MONOCYTE,[1],1.33%
same,NEUTROPHIL,[1],8.67%
same,NUCLEATED RED BLOOD CELLS,[1],0 /100WBC
same,PLATELET COUNT,[1],1242 x10E3/uL
same,ALANINE AMINOTRANSFERASE,[1],58.67 u/L
same,ALKALINE PHOSPHATASE,[1],353 u/L
same,ASPARTATE AMINOTRANSFERASE,[1],97.67 u/L
same,BLOOD UREA NITROGEN,[1],15 mg/dL
same,CARBON DIOXIDE,[1],29 mmol/L
same,CHLORIDE,[1],106 MEQ/L
same,CHOLESTEROL,[1],81 mg/dL
same,CREATINE PHOSPHOKINASE,[1],155 u/L
same,CREATININE,[1],0.18 mg/dL
same,GLUCOSE,[1],132.33 mg/dL
same,LACTATE DEHYDROGENASE,[1],132 u/L
same,LIPASE,[1],9.67 u/L
same,PHOSPHORUS,[1],11.27 mg/dL
same,POTASSIUM,[1],6.7 MEQ/L
same,SODIUM,[1],152.17 MEQ/L
same,TOTAL BILIRUBIN,[1],0.17 mg/dL
same,TOTAL PROTEIN,[1],6.63 G/DL
same,URIC ACID,[1],1.17 mg/dL
same,ABSOLUTE BASOPHIL,[2],0 CELLS/uL
same,ABSOLUTE EOSINOPHIL,[2],0 CELLS/uL
same,ABSOLUTE LYMPHOCYTE,[2],16169.33 CELLS/uL
same,ABSOLUTE MONOCYTE,[2],308 CELLS/uL
same,ABSOLUTE SEGMENTED NEUTROPHIL,[2],1489.33 CELLS/uL
same,BASOPHIL,[2],0%
same,EOSINOPHIL,[2],0%
same,ERYTHROCYTE COUNT,[2],5.59 x10E6/uL
same,HEMATOCRIT,[2],35.1%
same,HEMOGLOBIN,[2],13.63 G/DL
same,LEUKOCYTE COUNT,[2],17.97 x10E3/uL
same,LYMPHOCYTE,[2],89.67%
same,MEAN CORPUSCULAR HEMOGLOBIN,[2],24.4 pg
same,MEAN CORPUSCULAR HEMOGLOBIN CONCENTRATION,[2],38.83 G/DL
same,MEAN CORPUSCULAR VOLUME,[2],62.7 fL
same,MONOCYTE,[2],1.67%
same,NEUTROPHIL,[2],8.67%
same,NUCLEATED RED BLOOD CELLS,[2],0 /100WBC
same,PLATELET COUNT,[2],1276.67 x10E3/uL
same,ALANINE AMINOTRANSFERASE,[2],53.67 u/L
same,ALKALINE PHOSPHATASE,[2],355.33 u/L
same,ASPARTATE AMINOTRANSFERASE,[2],109 u/L
same,BLOOD UREA NITROGEN,[2],14.33 mg/dL
same,CARBON DIOXIDE,[2],22.33 mmol/L
same,CHLORIDE,[2],104 MEQ/L
same,CHOLESTEROL,[2],67.67 mg/dL
same,CREATINE PHOSPHOKINASE,[2],922.67 u/L
same,CREATININE,[2],0.19 mg/dL
same,GLUCOSE,[2],204 mg/dL
same,LACTATE DEHYDROGENASE,[2],452.67 u/L
same,LIPASE,[2],10 u/L
same,PHOSPHORUS,[2],13.37 mg/dL
same,POTASSIUM,[2],5.82 MEQ/L
same,SODIUM,[2],147.33 MEQ/L
same,TOTAL BILIRUBIN,[2],0.17 mg/dL
same,TOTAL PROTEIN,[2],5.87 G/DL
same,URIC ACID,[2],1.9 mg/dL
same,ABSOLUTE BASOPHIL,[3],0 CELLS/uL
same,ABSOLUTE EOSINOPHIL,[3],0 CELLS/uL
same,ABSOLUTE LYMPHOCYTE,[3],15088.33 CELLS/uL
same,ABSOLUTE MONOCYTE,[3],152.33 CELLS/uL
same,ABSOLUTE SEGMENTED NEUTROPHIL,[3],1792.67 CELLS/uL
same,BASOPHIL,[3],0%
same,EOSINOPHIL,[3],0%
same,ERYTHROCYTE COUNT,[3],5.64 x10E6/uL
same,HEMATOCRIT,[3],34.3%
same,HEMOGLOBIN,[3],13.5 G/DL
same,LEUKOCYTE COUNT,[3],17.03 x10E3/uL
same,LYMPHOCYTE,[3],88.33%
same,MEAN CORPUSCULAR HEMOGLOBIN,[3],23.93 pg
same,MEAN CORPUSCULAR HEMOGLOBIN CONCENTRATION,[3],39.37 G/DL
same,MEAN CORPUSCULAR VOLUME,[3],60.83 fL
same,MONOCYTE,[3],1%
same,NEUTROPHIL,[3],10.67%
same,NUCLEATED RED BLOOD CELLS,[3],0 /100WBC
same,PLATELET COUNT,[3],1189 x10E3/uL
same,ALANINE AMINOTRANSFERASE,[3],58.33 u/L
same,ALKALINE PHOSPHATASE,[3],429.33 u/L
same,ASPARTATE AMINOTRANSFERASE,[3],79.33 u/L
same,BLOOD UREA NITROGEN,[3],16.67 mg/dL
same,CARBON DIOXIDE,[3],25 mmol/L
same,CHLORIDE,[3],106 MEQ/L
same,CHOLESTEROL,[3],72.33 mg/dL
same,CREATINE PHOSPHOKINASE,[3],133.33 u/L
same,CREATININE,[3],0.2 mg/dL
same,GLUCOSE,[3],162.33 mg/dL
same,LACTATE DEHYDROGENASE,[3],100 u/L
same,LIPASE,[3],10 u/L
same,PHOSPHORUS,[3],13.67 mg/dL
same,POTASSIUM,[3],6.24 MEQ/L
same,SODIUM,[3],150.03 MEQ/L
same,TOTAL BILIRUBIN,[3],0.13 mg/dL
same,TOTAL PROTEIN,[3],5.73 G/DL
same,URIC ACID,[3],1.4 mg/dL
